# From patent publication US4554367A, “Phosphonium organohalogenostannates-IV” (priority 1982, dated 1985)
# Assays:
# Venturia inaequalis = test: Residual protective action against Venturia inaequalis on apple shoots; format: in vivo; conditions: 0.02% of active substance, 15 days after infection
# Protocol: Residual protective action against Venturia inaequalis on apple shoots
# Apple cuttings with fresh shoots 10-20 cm long were sprayed with a spray liquor (0.02% of active substance) prepared from a wettable powder of the active substance. After 24 hours, the treated plants were infected with a conidia suspension of the fungus. The plants were then incubated at 90-100% relative atmospheric humidity for 5 days and were placed in a greenhouse at 20°-24° C. for 10 further days. The scab attack was evaluated 15 days after the infection. Compounds nos. 18, 5 and 9 and others inhibited the disease attack to less than 10%.
# Proteus vulgaris = test: MIC against bacteria, strain A; format: cell-based; conditions: 24 h, 30° C., tested at 100 or 300 mg/liter
# Protocol: (§1) Determination of the minimum inhibitory concentration (MIC) against bacteria
# (§2) ONCs (cultures incubated overnight) of the bacteria strains A-F grown in Caso-Peptone broth (Merck) are each diluted […] in saline. An amount of the suspension is introduced into Caso-Peptone broth such that the bacteria are again diluted 1:1,000. The cultures are treated with 100 or 300 mg/liter of the phosphonium stannates shown in Table B. After incubation at 30° C. in a shaking water bath for 24 hours, the cultures are evaluated on the basis of cloudiness. The MIC is the concentration at which the broth is not clouded by bacterial growth.
# Pseudomonas aeruginosa = test: MIC against bacteria, strain B; format: cell-based; conditions: 24 h, 30° C., tested at 100 or 300 mg/liter
# Protocol: as §1, §2
# Enterobacter aerogenes = test: MIC against bacteria, strain C; format: cell-based; conditions: 24 h, 30° C., tested at 100 or 300 mg/liter
# Protocol: as §1, §2
# Serratia marcenscens = test: MIC against bacteria, strain D; format: cell-based; conditions: 24 h, 30° C., tested at 100 or 300 mg/liter
# Protocol: as §1, §2
# [1] = test system: Alkaligenes denitrificans; test: MIC against bacteria, strain E; format: cell-based; conditions: 24 h, 30° C., tested at 100 or 300 mg/liter
# Protocol: as §1, §2
# Bacillus subtilis = test: MIC against bacteria, strain F; format: cell-based; conditions: 24 h, 30° C., tested at 100 or 300 mg/liter
# Protocol: as §1, §2
# Aspergillus niger = test: MIC against fungi, strain G; format: cell-based; conditions: malt extract agar
# Protocol: (§3) Determination of the minimum inhibitory concentration (MIC) against fungi
# (§4) The investigation is carried out in malt extract agar (Merck) by the known agar incorporation test using the fungi
# Aspergillus phoenicia = test: MIC against fungi, strain H; format: cell-based; conditions: malt extract agar
# Protocol: as §3, §4
# (§5) For inhibition, the various compounds are in each case added in amounts such that concentrations of […] results in the agar. The concentrations (mg/liter) required for inhibition of the growth of the fungi (starting from traces of fungi dripped on) are illustrated in Table D.
# Penicillium funiculosum = test: MIC against fungi, strain I; format: cell-based; conditions: malt extract agar
# Protocol: as §3, §4
# I Penicillium funiculosum
# as §5
# Alternaria alternata = test: MIC against fungi, strain J; format: cell-based; conditions: malt extract agar
# Protocol: as §3, §4, §5
# [2] = test system: Cladosporium cladosporioides; test: MIC against fungi, strain K; format: cell-based; conditions: malt extract agar
# Protocol: as §3, §4
# K Cladosporium cladosporioides
# as §5
# Candida albicans = test: MIC against fungi, strain L; format: cell-based; conditions: malt extract agar
# Protocol: as §3, §4, §5
# Endomyces geotrichum = test: MIC against fungi, strain M; format: cell-based; conditions: malt extract agar
# Protocol: as §3, §4, §5
# Aureobasidium pullulans = test: MIC against fungi, strain N; format: cell-based; conditions: malt extract agar
# Protocol: as §3, §4
# N Aureobasidium pullulans
# as §5
# Chaetomium globosum = test: MIC against fungi, strain O; format: cell-based; conditions: malt extract agar
# Protocol: as §3, §4, §5
# Chlorella vulgaris = test: Action against Chlorella vulgaris; format: cell-based; design: key to Growth in the medium: 1: no growth in the medium, 3 ppm have a growthinhibiting action; key to Growth on the agar: 2: no growth on the agar, 3 ppm have destroyed the algae within 6 hours; conditions: 3 mg/liter
# Protocol: Determination of the action against algae
# A Chlorella vulgaris culture grown for 14 days in algae nutrient medium is diluted 1:200 in algae nutrient medium. Each of the compounds listed in Table E is then added such that a concentration of 3 mg/liter results. After incubation for 6 hours, 10 μl are in each case withdrawn and dripped onto algae agar in order to determine the destructive action.
# [3] = test system: Enteromorpha intestinalis; test: Action against Enteromorpha intestinalis; format: cell-based
# Protocol: (b) Enteromorpha intestinalis
# The action against the green alga Enteromorpha most important in sea water fouling is investigated in sterile-filtered sea water containing Erd-Schreiber solution. The solution is composed of a nutrient extract, phosphate and nitrate. Incubation of the Enteromorpha intestinalis takes place in a light thermostat at 18° C. under a 14 hours light/10 hours dark cycle.
# The algae grown in this manner are exposed for a short time (4 hours), in sea water, to the products to be investigated. The minimum killing concentration (MKC) is determined by removing the algae from the sea water containing a certain amount of algicide at the end of the period of action, washing them and investigating them for growth or destruction after renewed incubation in fresh sea water for 6 to 8 weeks.
# The minimum killing concentration (MKC) is the amount of substance required to harm the alga within a certain period of time to the extent that it can no longer recover in fresh sea water and dies off.
# To determine the inhibitory concentration (MIC), the alga is kept in sea water containing biocide throughout the entire duration of the experiment (concentration tested: 0.1 and 0.5 mg/liter).
# Artemia salina = test: Action against Artemia salina; format: in vivo; design: key: 0: nauplii not affected; 1: slight change; 1-2: nauplii affected; 2: nauplii severely affected; 2-3: almost all nauplii dead; 3: all nauplii dead
# Excerpt: Determination of the action against Artemia salina
# The commercially available eggs are caused to hatch under powerful aeration. […]
smiles,measurement,setting,value
"CCCCCCCCCCCCCC[P+](CCCC)(CCCC)CCCC.[Cl][Sn-]([Cl])([CH]1CCCCC1)([CH]1CCCCC1)[CH]1CCCCC1 [Example 18, tri-n-bytyl-n-tetradecyl-phosphonium tricyclohexyldichlorostannate]",disease (scab) attack (inhibited to less than),Venturia inaequalis,less than 10%
CCCCCCCCCCCCCC[P+](CCCC)(CCCC)CCCC.[CH3][Sn-]([CH3])([Cl])([Cl])[Cl] [Example 20],MIC,Proteus vulgaris,100 µg/mL
same,MIC,Pseudomonas aeruginosa,100 µg/mL
same,MIC,Enterobacter aerogenes,100 µg/mL
same,MIC,Serratia marcenscens,100 µg/mL
same,MIC,[1],100 µg/mL
same,MIC,Bacillus subtilis,100 µg/mL
same,MIC against fungi,Aspergillus niger,50 µg/mL
same,MIC against fungi,Aspergillus phoenicia,50 µg/mL
same,MIC against fungi,Penicillium funiculosum,10 µg/mL
same,MIC against fungi,Alternaria alternata,50 µg/mL
same,MIC against fungi,[2],10 µg/mL
same,MIC against fungi,Candida albicans,10 µg/mL
same,MIC against fungi,Endomyces geotrichum,10 µg/mL
same,MIC against fungi,Aureobasidium pullulans,10 µg/mL
same,MIC against fungi,Chaetomium globosum,10 µg/mL
same,Growth on the agar,Chlorella vulgaris; 6 hours exposure (algae-destruction action),2
same,Growth in the medium,Chlorella vulgaris; 14 days (inhibition of growth),1
same,Destruction 5 mg/liter,"[3]; 5 mg/liter, 4 hours exposure in sea water, re-incubation 6 to 8 weeks",yes
same,MIC,"[3]; kept in sea water containing biocide throughout, tested 0.1 and 0.5 mg/liter",> 0.5 µg/mL
same,Action against Artemia salina,"Artemia salina; 0.25 mg/liter, 6 hours",0
same,Action against Artemia salina,"Artemia salina; 0.25 mg/liter, 24 hours",1-2
same,Action against Artemia salina,"Artemia salina; 0.25 mg/liter, 48 hours",2-3
same,Action against Artemia salina,"Artemia salina; 0.5 mg/liter, 6 hours",1
same,Action against Artemia salina,"Artemia salina; 0.5 mg/liter, 24 hours",2
same,Action against Artemia salina,"Artemia salina; 0.5 mg/liter, 48 hours",3
same,Action against Artemia salina,"Artemia salina; 1 mg/liter, 6 hours",2
same,Action against Artemia salina,"Artemia salina; 1 mg/liter, 24 hours",2-3
same,Action against Artemia salina,"Artemia salina; 1 mg/liter, 48 hours",3
same,Action against Artemia salina,"Artemia salina; 2.5 mg/liter, 6 hours",1-2
same,Action against Artemia salina,"Artemia salina; 2.5 mg/liter, 24 hours",3
same,Action against Artemia salina,"Artemia salina; 2.5 mg/liter, 48 hours",3
